pIC50: −log10 of the molar value. Where a name gives a salt, the structure may show the parent alone.

Data set [1] relates to sodium channel. As to the kind of experiment: Guanidine influx assay (14C-guanidine radiotracer flux, in vitro). The format is cell-based, human or rat. Conditions: guanidine influx assay using a known cell line that expresses a sodium channel. The gist of the method:
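Radiotracer read-out: intracellular 14C-guanidine counted after washing with guanidine-supplemented low-sodium buffer. Cells expressing human or rat channels get test agent plus aconitine activator and tracer, incubated at ambient temperature. Dilution series centred on 1 μM; IC50 by sigmoidal dose-response fit.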

Data set [2] concerns the target CYP3A4 (Homo sapiens, UniProt P08684). As to the kind of experiment: Cytochrome P450 (CYP450) Inhibition Assay, CYP3A4 (Vivid fluorescence, BOMCC substrate). Conditions: human, P450 Baculosomes (recombinant CYP3A4), probe BOMCC (Vivid substrate).

Sequence of CYP3A4 (P08684 whole entry): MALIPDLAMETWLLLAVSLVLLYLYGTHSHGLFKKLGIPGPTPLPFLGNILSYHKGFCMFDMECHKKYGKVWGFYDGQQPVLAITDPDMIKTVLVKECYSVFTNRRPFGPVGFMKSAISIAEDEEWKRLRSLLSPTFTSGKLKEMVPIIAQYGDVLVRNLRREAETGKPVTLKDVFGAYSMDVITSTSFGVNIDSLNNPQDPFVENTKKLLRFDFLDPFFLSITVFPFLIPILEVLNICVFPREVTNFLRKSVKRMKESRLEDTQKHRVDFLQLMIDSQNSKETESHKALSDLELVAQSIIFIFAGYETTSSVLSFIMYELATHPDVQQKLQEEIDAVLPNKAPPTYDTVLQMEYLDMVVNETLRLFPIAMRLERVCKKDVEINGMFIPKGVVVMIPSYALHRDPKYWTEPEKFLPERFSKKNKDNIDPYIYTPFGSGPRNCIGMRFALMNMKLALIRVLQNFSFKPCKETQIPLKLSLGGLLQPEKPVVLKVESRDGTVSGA

As to `CC(C)N1CCC(CN2C(=O)C3(COc4cc5c(cc43)CCO5)c3ccccc32)CC1.Cl` (centres unmarked), the melting point was 167 °C (dec.). Regarding `CCN1CCC(CN2C(=O)C3(COc4cc5c(cc43)CCO5)c3ccccc32)CC1.Cl` (centres unmarked), the melting point was 135 °C (dec.). The same measure, in the same setting: with `CN1CCN(CN2C(=O)C3(COc4cc5c(cc43)OCO5)c3ccccc32)CC1` (centres unmarked) (as salt: chloride) [Example 11.63, 1′-[(4-methylpiperazin-1-yl)methyl]spiro[furo[2,3-f][1,3]benzodioxole-7,3′-indol]-2′(1′H)-one hydrogen chloride] the figure was > 175 °C (dec.). The same measure, in the same setting: with `COc1cc2c(cc1C)[C@@]1(CO2)C(=O)N(CN2CCN(C)CC2)c2ccccc21` (as salt: chloride) [Example 11.64, (3S)-6-methoxy-5-methyl-1′-[(4-methylpiperazin-1-yl)methyl]spiro[1-benzofuran-3,3′-indol]-2′(1′H)-one hydrogen chloride] the figure was > 200 °C (dec.); with `COc1cc2c(cc1C)[C@]1(CO2)C(=O)N(CN2CCN(C)CC2)c2ccccc21` (as salt: chloride) [Example 11.65, (3R)-6-methoxy-5-methyl-1′-[(4-methylpiperazin-1-yl)methyl]spiro[1-benzofuran-3,3′-indol]-2′(1′H)-one hydrogen chloride], > 200 °C (dec.). Still for that read-out and setting: with `CN1CCN(CN2C(=O)C3(COc4cc5c(cc43)CCO5)c3ccccc32)CC1` (centres unmarked) (as salt: hydrochloride) the figure was 181 °C (dec.).

For the molecule `CN1CCC(CN2C(=O)C3(COc4cc(F)c(F)cc43)c3ccccc32)CC1` (centres unmarked) (as salt: hydrochloride) [Example 11.112, 5,6-difluoro-1′-[(1-methylpiperidin-4-yl)methyl]spiro[1-benzofuran-3,3′-indol]-2′(1′H)-one hydrochloride], the melting point lay within 162 to 164 °C. Take `NC(=O)c1coc(CN2C(=O)C3(COc4cc5c(cc43)CCO5)c3ccccc32)n1` (centres unmarked) [Example 13.3, 2-[(2′-oxo-5,6-dihydrospiro[benzo[1,2-b:5,4-b′]difuran-3,3′-indol]-1′(2′H)-yl)methyl]-1,3-oxazole-4-carboxamide]: the negative-log IC50 (pIC50) in data set [1] was 6.00 to 7.00. For the same molecule, in data set [2], the inhibition at 10 µM was below 50%. For `CN(C)C(=O)c1coc(CN2C(=O)C3(COc4cc5c(cc43)CCO5)c3ccccc32)n1` (centres unmarked) [Example 13.4, N,N-dimethyl-2-[(2′-oxo-5,6-dihydrospiro[benzo[1,2-b:5,4-b′]difuran-3,3′-indol]-1′(2′H)-yl)methyl]-1,3-oxazole-4-carboxamide] the same measures were 6.00 to 7.00 and below 50%. For the molecule `O=C(NC1CC1)c1coc(CN2C(=O)C3(COc4cc5c(cc43)OCO5)c3ccccc32)n1` (centres unmarked) [Example 13.5, N-cyclopropyl-2-[(2′-oxospiro[furo[2,3-f][1,3]benzodioxole-7,3′-indol]-1′(2′H)-yl)methyl]-1,3-oxazole-4-carboxamide], the pIC50 in data set [1] was 7.00 to 9.00. Besides, the inhibition at 10 µM in data set [2] was above 50%. Consider `CC(C)NC(=O)c1coc(CN2C(=O)C3(COc4cc5c(cc43)OCO5)c3ccccc32)n1` (centres unmarked) [Example 13.6, N-(1-methylethyl)-2-[(2′-oxospiro[furo[2,3-f][1,3]benzodioxole-7,3′-indol]-1′(2′H)-yl)methyl]-1,3-oxazole-4-carboxamide], for which the negative logarithm of the IC50 (pIC50) in data set [1] is 7.00 to 9.00. Moreover, the inhibition at 10 µM in data set [2] is above 50%.

As for `O=C1N(C[C@H]2CCCO2)c2cccc(/C=C/c3ccc(F)cc3)c2C12COc1cc3c(cc12)CCO3` (stereo partly drawn) [Example 16.1, 4′-[(E)-2-(4-fluorophenyl)ethenyl]-1′-[(2R)-tetrahydrofuran-2-ylmethyl]-5,6-dihydrospiro[benzo[1,2-b:5,4-b′]difuran-3,3′-indol]-2′(1′H)-one], the pIC50 in data set [1] is 6.00 to 7.00. For the same molecule, the inhibition at 10 µM in data set [2] is above 50%.

As to `O=C1N(C[C@H]2CCCO2)c2cccc(-c3cccc4c3sc3ccccc34)c2C12COc1cc3c(cc12)CCO3` (stereo partly drawn) [Example 16.2, 4′-dibenzo[b,d]thiophen-4-yl-1′-[(2R)-tetrahydrofuran-2-ylmethyl]-5,6-dihydrospiro[benzo[1,2-b:5,4-b′]difuran-3,3′-indol]-2′(1′H)-one], the pIC50 in data set [1] is 6.00 to 7.00. Moreover, the inhibition at 10 µM in data set [2] is above 50%. For `O=C1N(C[C@H]2CCCO2)c2cccc(-c3csc4ccccc34)c2C12COc1cc3c(cc12)CCO3` (stereo partly drawn) [Example 16.3, 4′-(1-benzothiophen-3-yl)-1′-[(2R)-tetrahydrofuran-2-ylmethyl]-5,6-dihydrospiro[benzo[1,2-b:5,4-b′]difuran-3,3′-indol]-2′(1′H)-one] the same measures were 5.00 to 6.00 and above 50%. For `Cn1ccc2cc(-c3cccc4c3C3(COc5cc6c(cc53)CCO6)C(=O)N4C[C@H]3CCCO3)ccc21` (stereo partly drawn) [Example 16.4, 4′-(1-methyl-1H-indol-5-yl)-1′-[(2R)-tetrahydrofuran-2-ylmethyl]-5,6-dihydrospiro[benzo[1,2-b:5,4-b′]difuran-3,3′-indol]-2′(1′H)-one] the same measures were 6.00 to 7.00 and above 50%.

With `O=C1N(C[C@H]2CCCO2)c2cccc(-c3cc(C(F)(F)F)cc(C(F)(F)F)c3)c2C12COc1cc3c(cc12)CCO3` (stereo partly drawn) [Example 16.5, 4′-[3,5-bis(trifluoromethyl)phenyl]-1′-[(2R)-tetrahydrofuran-2-ylmethyl]-5,6-dihydrospiro[benzo[1,2-b:5,4-b′]difuran-3,3′-indol]-2′(1′H)-one], the pIC50 in data set [1] is 6.00 to 7.00. Also, the inhibition at 10 µM in data set [2] was above 50%. The corresponding values for `CCCCOc1ccc(-c2cccc3c2C2(COc4cc5c(cc42)CCO5)C(=O)N3C[C@H]2CCCO2)cc1` (stereo partly drawn) [Example 16.8, 4′-(4-butoxyphenyl)-1′-[(2R)-tetrahydrofuran-2-ylmethyl]-5,6-dihydrospiro[benzo[1,2-b:5,4-b′]difuran-3,3′-indol]-2′(1′H)-one] are 6.00 to 7.00 and below 50%. For `Cc1noc2cc3c(cc12)C1(CO3)C(=O)N(Cc2ccc(-c3cc(N)n[nH]3)cc2)c2ccccc21` (centres unmarked) [Example 29.1, 1′-[4-(3-amino-1H-pyrazol-5-yl)benzyl]-3-methylspiro[furo[3,2-f][1,2]benzisoxazole-5,3′-indol]-2′(1′H)-one hydrochloride] the same measures were 6.00 to 7.00 and above 50%. The corresponding values for `Nc1cc(-c2ccc(CN3C(=O)C4(COc5cc6c(cc54)OCCO6)c4ccccc43)cc2)[nH]n1` (centres unmarked) [Example 29.2, 1′-[4-(3-amino-1H-pyrazol-5-yl)benzyl]-2,3-dihydrospiro[furo[2,3-g][1,4]benzodioxine-8,3′-indol]-2′(1′H)-one hydrochloride] are 6.00 to 7.00 and above 50%. Take `O=C1N(Cc2ccc(N[C@@H]3CCNC3)cc2)c2ccccc2C12COc1cc(F)c(F)cc12` (stereo partly drawn) [Example 33.2, 5,6-difluoro-1′-{4-[(3R)-pyrrolidin-3-ylamino]benzyl}spiro[1-benzofuran-3,3′-indol]-2′(1′H)-one hydrochloride]: the pIC50 in data set [1] is 5.00 to 6.00. Further, the inhibition at 10 µM in data set [2] was above 50%. Take `NC(=O)c1cccc(CN2C(=O)C3(COc4cc5c(cc43)OCCO5)c3ccccc32)n1` (centres unmarked) [Example 42, 6-[(2′-oxo-2,3-dihydrospiro[furo[2,3-g][1,4]benzodioxine-8,3′-indol]-1′(2′H)-yl)methyl]pyridine-2-carboxamide]: in data set [1], the pIC50 was 7.00 to 9.00. Also, the inhibition at 10 µM in data set [2] is above 50%.

Source of the values: patent US8263606B2 (Xenon Pharmaceuticals Inc., priority 2008, dated 2012).
